Source: patent publication US20130266526A1, “DIHYDROXYFUMARIC ACID DERIVATIVES AND THE USE THEREOF FOR SKIN LIGHTENING” (MERCK PATENT GMBH, priority 2010, published 2013)
“Also recorded” adds a separate entry of the source.

How the values were obtained:
[1] = system: B16V mouse melanoma cells; experiment: B16 V mouse melanoma cell test (melanin content after alpha-MSH stimulation); format: cell-based; conditions: for Relative melanin content in %: DMSO control = 100, alpha-MSH 10^-8 M, absorption 405 nm
Experimental: B16V mouse melanoma cells (manufacturer: DSMZ; Article No.: ACC370) are transferred into RPMI medium (Invitrogen, Article No.: 31870), to which 10% of FBS (foetal bovine serum; Invitrogen, Article No.: 10499044), 2 mM L-glutamine (Invitrogen, Article No: 25030) and 1 mM sodium pyruvate (Invitrogen, Article No.: 11360) had additionally been added, and incubated at 37° C. and 5% CO2 for 72 h. The medium is separated off, and the cells are washed once with 10 ml of DPBS (Dulbecco's phosphate-buffered salines; Invitrogen, Article No.: 14190), and the medium is subsequently removed by suction. 1 ml of HyQtase cell detachment solution (Hyclone, Article No.: SV30030.01) is added to the cells. The bottle is swirled a number of times, and the HyQtase cell detachment solution is subsequently removed by suction. The cells are then incubated in the incubator at 37° C. and 5% CO2 for 5 min. The cells are taken up in the modified RPMI medium (see above), and the cell count is determined. To this end, the cells are stained with Trypan Blue and counted in a Neubauer counting chamber. The cells are subsequently sown out again in the modified RPMI medium (see above) in a defined cell count of 80,000 cells per well (6-well clear plate, TCT, PS (Nunc)).
The cells are incubated at 37° C. and 5% CO2 for 24 h, the medium is then removed. 1980 μl of the dilution of the respective substance to be tested are subsequently added. For this substance dilution, the substance is dissolved in DMSO and subsequently filtered through a sterile filter (0.2 μm, Millipore, Article No. SLLG013SL). The solution is then diluted with the modified RPMI medium (see above, but in this case the FBS content is only 5%) in such a way that the final concentration of the substance dilution has the desired final concentration as shown in Table 1.
20 μl of an alpha-MSH solution (alpha-melanocyte-stimulating hormone, DMSO, Sigma, Article No.: D2650) are then added, so that the alpha-MSH concentration in the well is 10^−8 M. The plate is subsequently incubated again at 37° C. and 5% CO2 for 24 h. The process described in this section is repeated a further twice in total.
After the final incubation period, the medium is removed by suction, and the cells are washed with 1000 μl of DPBS (Invitrogen, Article No.: 14190). The medium is again removed by suction. […] of HyQtase cell detachment solution (Hyclone, Article No.: SV30030.01) are added to the cells. The 6-well plate is swirled a number of times, and the HyQtase cell detachment solution is subsequently removed by suction. The cells are then incubated in the incubator at 37° C. and 5% CO2 for 5 min. The cells are taken up in 1.5 ml of DPBS (Invitrogen, Article No.: 14190) and transferred into a cup (SARSTEDT, Ref. 72.692.005). The cell count is subsequently determined. To this end, the cells are stained with Trypan Blue and counted in a Neubauer counting chamber. The cells centrifuged for 1 min at 3500 g. The pellets obtained are photographed, and the supernatant is subsequently removed by suction. The pellets are dissolved in 1 ml of 1N NaOH at 80° C. for 1 h and then cooled to RT. Four times 200 μl per cup (as quadruple determination) are subsequently pipetted into a 96-well plate (VWR, Article No.: 4100636981), and the absorption at a wavelength of 405 nm is determined (Safire, Tecan). The content of melanin can be determined in this way by means of a calibration line.

[2] = system: melanin; conditions: substance alone; Example 5 of WO 01/66105 A1; cited from earlier work

Structure (SMILES): O=C1O[C@H]([C@@H](O)CO)C(O)=C1O [Ascorbic acid]
- Relative melanin content in % ([1]; 3 mM): 77.4%

Structure (SMILES): CC(O)C(=O)O (stereo not shown) [Lactic acid]
- Relative melanin content in % ([1]; 11.1 mM): 57.8%
- melanin-reducing action [2]: 40%

Structure (SMILES): O.O.O=C(O)/C(O)=C(\O)C(=O)O [Dihydroxyfumaric acid dihydrate]
- Relative melanin content in % ([1]; 0.5 mM): 13.4%
- skin-lightening action in comparison with known active compounds ([1]; comparison of the working example (Table 1), dihydrate): exceeds the action of lactic acid, glycolic acid and even kojic acid by a multiple; also recorded: higher compared with the hydroxy acids lactic acid and glycolic acid

Structure (SMILES): O=c1cc(CO)occ1O [Kojic acid]
- Relative melanin content in % ([1]; 1 mM): 59%

Structure (SMILES): O=C(O)CO [Glycolic acid]
- Relative melanin content in % ([1]; 0.5 mM): 67.3%
